In the NIST ThermoML archive (doi:10.1016/j.fluid.2014.01.003):
Numbers after ± are expanded uncertainties.

Tests used:
[1] = xn = mol fraction of the nth substance listed; conditions: 298.2 K, 101 kPa, Liquid, Camera Imaging
[2] = 101.33 kPa, Liquid, Cone and plate viscometry
[3] = refractive index (Na D-line) (dimensionless); conditions: 101.33 kPa, Liquid, Standard Abbe refractometry
[4] = φn = volume fraction of the nth substance listed; conditions: 101 kPa, Liquid, Camera Imaging, φ1 = 0.5

| SMILES | viscosity ([2]; 298.2 K) | viscosity ([2]; 308.2 K) | viscosity ([2]; 318.2 K) | viscosity ([2]; 328.2 K) | viscosity ([2]; 338.2 K) | refractive index ([3]; 298.2 K) | refractive index ([3]; 318.2 K) | refractive index ([3]; 328.2 K) | refractive index ([3]; 338.2 K) | binary diffusion coefficient ([4]; 298.2 K) | further results |
| --- | --- | --- | --- | --- | --- | --- | --- | --- | --- | --- | --- |
| OCCO [1,2-ethanediol] + O | – | – | – | – | – | – | – | – | – | – | binary diffusion coefficient ([1]; x1 = 0.0323): 1.23e-09 m2/s; binary diffusion coefficient ([1]; x1 = 0.0698): 8.36e-10 m2/s; binary diffusion coefficient ([1]; x1 = 0.114): 7.12e-10 m2/s; binary diffusion coefficient ([1]; x1 = 0.1667): 6.38e-10 m2/s; binary diffusion coefficient ([1]; x1 = 0.242): 5.86e-10 m2/s; binary diffusion coefficient ([1]; x1 = 0.3104): 5.02e-10 m2/s; binary diffusion coefficient ([1]; x1 = 0.4119): 4.33e-10 m2/s; binary diffusion coefficient ([1]; x1 = 0.5456): 3.2e-10 m2/s; binary diffusion coefficient ([1]; x1 = 0.7298): 2.84e-10 m2/s |
| Cn1cc[n+](C)c1.F[B-](F)(F)F [1,3-dimethyl-1H-imidazolium tetrafluoroborate] | 34 ± 1 mPa·s | 22 ± 1 mPa·s | 15 ± 1 mPa·s | 11 ± 1 mPa·s | 7.8 ± 1 mPa·s | 1.4023 ± 0.0004 | 1.3993 ± 0.0004 | 1.3988 ± 0.0004 | 1.3975 ± 0.0004 | – | – |
| Cn1cc[n+](C)c1.F[B-](F)(F)F [1,3-dimethyl-1H-imidazolium tetrafluoroborate] + O | – | – | – | – | – | – | – | – | – | 6.87e-10 m2/s | binary diffusion coefficient ([4]; 308.2 K): 7.74e-10 m2/s; binary diffusion coefficient ([4]; 318.2 K): 8.45e-10 m2/s; binary diffusion coefficient ([4]; 328.2 K): 9.62e-10 m2/s; binary diffusion coefficient ([4]; 338.2 K): 1.06e-09 m2/s |
| CCCCn1cc[n+](C)c1.N#CN=C=[N-] [1-butyl-3-methylimidazolium dicyanamide] + O | – | – | – | – | – | – | – | – | – | 2.53e-10 m2/s | – |
| CCn1cc[n+](C)c1.N#CN=C=[N-] [1-ethyl-3-methylimidazolium dicyanamide] + O | – | – | – | – | – | – | – | – | – | 7.25e-10 m2/s | – |
| CCn1cc[n+](C)c1.[O-][Cl+3]([O-])([O-])[O-] [1-ethyl-3-methylimidazolium perchlorate] + O | – | – | – | – | – | – | – | – | – | 1.93e-10 m2/s | – |
| CCn1cc[n+](C)c1.F[B-](F)(F)F [1-ethyl-3-methylimidazolium tetrafluoroborate] | 45 ± 1 mPa·s | 27 ± 1 mPa·s | 19 ± 1 mPa·s | 14 ± 1 mPa·s | 11 ± 1 mPa·s | 1.4098 ± 0.0004 | 1.4065 ± 0.0004 | 1.4053 ± 0.0004 | 1.4035 ± 0.0004 | – | refractive index ([3]; 308.2 K): 1.4082 ± 0.0004 |
| CCn1cc[n+](C)c1.F[B-](F)(F)F [1-ethyl-3-methylimidazolium tetrafluoroborate] + O | – | – | – | – | – | – | – | – | – | 3.42e-10 m2/s | binary diffusion coefficient ([4]; 308.2 K): 4.65e-10 m2/s; binary diffusion coefficient ([4]; 318.2 K): 5.57e-10 m2/s; binary diffusion coefficient ([4]; 328.2 K): 6.72e-10 m2/s; binary diffusion coefficient ([4]; 338.2 K): 7.89e-10 m2/s |
| O [water] | 0.9 mPa·s | 0.72 mPa·s | 0.61 mPa·s | 0.5 mPa·s | 0.43 mPa·s | 1.3325 ± 0.0005 | 1.3299 ± 0.0005 | 1.3282 ± 0.0005 | 1.3275 ± 0.0005 | – | refractive index ([3]; 308.2 K): 1.3313 ± 0.0005 |

Continued, in another order:

| viscosity ([2]; 298.2 K) | viscosity ([2]; 308.2 K) | viscosity ([2]; 318.2 K) | viscosity ([2]; 328.2 K) | viscosity ([2]; 338.2 K) | refractive index ([3]; 298.2 K) | refractive index ([3]; 318.2 K) | refractive index ([3]; 328.2 K) | refractive index ([3]; 338.2 K) | binary diffusion coefficient ([4]; 298.2 K) | SMILES | further results |
| --- | --- | --- | --- | --- | --- | --- | --- | --- | --- | --- | --- |
| – | – | – | – | – | – | – | – | – | 3.13e-10 m2/s | CCCCn1cc[n+](C)c1.O=[N+]([O-])[O-] [1-butyl-3-methylimidazolium nitrate] + O | – |
| 146 ± 4 mPa·s | 76 ± 2 mPa·s | 45 ± 1 mPa·s | 29 ± 1 mPa·s | 21 ± 1 mPa·s | 1.4184 ± 0.0004 | 1.4142 ± 0.0004 | 1.4125 ± 0.0004 | 1.4106 ± 0.0004 | – | CCCCn1cc[n+](C)c1.F[B-](F)(F)F [1-butyl-3-methylimidazolium tetrafluoroborate] | refractive index ([3]; 308.2 K): 1.4163 ± 0.0004 |
| – | – | – | – | – | – | – | – | – | 1.24e-10 m2/s | CCCCn1cc[n+](C)c1.F[B-](F)(F)F [1-butyl-3-methylimidazolium tetrafluoroborate] + O | binary diffusion coefficient ([4]; 308.2 K): 2.56e-10 m2/s; binary diffusion coefficient ([4]; 318.2 K): 3.83e-10 m2/s; binary diffusion coefficient ([4]; 328.2 K): 5.13e-10 m2/s; binary diffusion coefficient ([4]; 338.2 K): 6.45e-10 m2/s |
